The test deals with Neuropilin-1 (Homo sapiens) (UniProt O14786). Description: NRP-1 b1b2 CendR peptide binding inhibitors, dose response, biochemical, FP and AlphaScreen panel (AID 651650). Particulars: NRP-1 b1b2 / RPARPAR peptide binding, FP or AlphaScreen.
[1] abbreviates: AlphaScreen, run 1, individual panel run IC50.
Setting [2] is: FP, run 1, individual panel run IC50.
Setting [3] is: FP, run 2, individual panel run IC50.

17 compounds from PubChem BioAssay AID651650 (Sanford-Burnham Center for Chemical Genomics, 2012) can be followed below.

Calls of active or inactive are those of the source.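 The calls were made as follows: active = mean IC50 below 20 µM in each of the two panels, so potent in both; inactive = the rest.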

Sequence of Neuropilin-1 (Homo sapiens) (O14786 whole entry, looked up): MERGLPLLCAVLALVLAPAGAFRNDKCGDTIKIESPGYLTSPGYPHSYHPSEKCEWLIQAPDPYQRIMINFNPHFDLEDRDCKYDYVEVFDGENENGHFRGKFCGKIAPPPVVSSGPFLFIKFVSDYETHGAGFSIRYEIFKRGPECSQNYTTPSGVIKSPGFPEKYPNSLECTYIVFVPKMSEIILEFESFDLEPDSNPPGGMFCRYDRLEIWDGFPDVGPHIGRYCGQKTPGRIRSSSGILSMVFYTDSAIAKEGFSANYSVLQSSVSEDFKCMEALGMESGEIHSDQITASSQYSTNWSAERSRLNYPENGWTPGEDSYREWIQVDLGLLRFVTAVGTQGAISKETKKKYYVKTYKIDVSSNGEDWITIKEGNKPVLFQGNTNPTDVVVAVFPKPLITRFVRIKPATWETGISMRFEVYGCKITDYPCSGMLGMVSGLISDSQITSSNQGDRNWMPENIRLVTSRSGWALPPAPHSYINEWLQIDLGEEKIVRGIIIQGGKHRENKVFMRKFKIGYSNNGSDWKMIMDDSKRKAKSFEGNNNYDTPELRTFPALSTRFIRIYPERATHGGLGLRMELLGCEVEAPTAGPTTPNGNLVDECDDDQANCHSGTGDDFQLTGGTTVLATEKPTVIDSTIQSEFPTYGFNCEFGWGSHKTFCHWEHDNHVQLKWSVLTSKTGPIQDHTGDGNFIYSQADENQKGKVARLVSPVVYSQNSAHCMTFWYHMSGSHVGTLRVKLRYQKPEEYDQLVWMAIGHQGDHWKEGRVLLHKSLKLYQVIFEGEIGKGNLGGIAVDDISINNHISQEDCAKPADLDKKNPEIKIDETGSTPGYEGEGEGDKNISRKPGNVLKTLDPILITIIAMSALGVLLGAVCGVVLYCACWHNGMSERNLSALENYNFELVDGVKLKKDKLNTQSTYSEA

The term IC50 denotes the concentration that gives 50% inhibition. Turning to `Cc1ccc(C(=O)OCC(=O)c2ccc(Cl)s2)s1`, the IC50 is > 100 µM (inactive) (AlphaScreen, mean of runs); greater than 100 µM under setting [1]; > 95 µM (inactive) (FP, mean of runs); greater than 95 µM under setting [2]; greater than 95 µM under setting [3].
As for `Cc1cn([C@H]2C[C@H](O)[C@@H](CCC(=O)NCCc3ccc4ccccc4c3)O2)c(=O)[nH]c1=O`, the IC50 (AlphaScreen, mean of runs) was > 100 µM (inactive); the IC50 under setting [1] was greater than 100 µM; the IC50 (FP, mean of runs) is > 95 µM (inactive); the IC50 under setting [2] was greater than 95 µM; the IC50 under setting [3] is greater than 95 µM.
`O=c1[nH]c(Nc2ccccn2)cc2ccccc12`: the IC50 runs as follows: (AlphaScreen, mean of runs) 19.5 µM; under setting [1], 19.6 µM; (FP, mean of runs) > 95 µM (inactive); under setting [2], greater than 95 µM; under setting [3], greater than 95 µM.
`NC(=O)CC[C@H](NC(=O)c1ccc(F)cc1)C(=O)N1CCN(Cc2ccc3c(c2)OCO3)CC1`: the IC50 was > 100 µM (inactive) (AlphaScreen, mean of runs); greater than 100 µM under setting [1]; > 95 µM (inactive) (FP, mean of runs); greater than 95 µM under setting [2]; greater than 95 µM under setting [3].
As for `CC(C)C(N)c1csc(NC(=O)Nc2cccc(C(F)(F)F)c2)n1` (stereo not given), the IC50 reads like this: (AlphaScreen, mean of runs) > 100 µM (inactive); under setting [1], greater than 100 µM; (FP, mean of runs) > 95 µM (inactive); under setting [2], greater than 95 µM; under setting [3], greater than 95 µM.
`O=C(c1ccccn1)N1CCN(S(=O)(=O)c2ccccc2)CC1`: the IC50 entry (AlphaScreen, mean of runs) is “inactive”. The IC50 by setting is: under setting [1], 27.8 µM; (FP, mean of runs) > 95 µM (inactive); under setting [2], greater than 95 µM; under setting [3], greater than 95 µM.
Take `Cc1ccccc1-c1cnc(C(O)c2ccc(F)c(F)c2)[nH]1` (stereo not given): the IC50 runs as follows: (AlphaScreen, mean of runs) > 100 µM (inactive); under setting [1], greater than 100 µM; (FP, mean of runs) > 95 µM (inactive); under setting [2], greater than 95 µM; under setting [3], greater than 95 µM.
For `O=C(O)c1ccccc1SCC(=O)N1CCCCC1`, the IC50 (AlphaScreen, mean of runs) was > 100 µM (inactive); the 50% inhibitory concentration (IC50) under setting [1] is greater than 100 µM; the IC50 (FP, mean of runs) was > 95 µM (inactive); the IC50 under setting [2] was greater than 95 µM; the IC50 under setting [3] was greater than 95 µM.
Regarding `COc1ccc(-c2csc(NC(CO)c3nc4ccccc4n3CCCO)n2)cc1` (stereo not given), the IC50 is > 100 µM (inactive) (AlphaScreen, mean of runs); greater than 100 µM under setting [1]; > 95 µM (inactive) (FP, mean of runs); greater than 95 µM under setting [2]; greater than 95 µM under setting [3].
Take `O=C(NCCN1CCN(C(=O)c2cccc(OC(F)F)c2)CC1)c1cccc(OC(F)F)c1`: the IC50 was > 100 µM (inactive) (AlphaScreen, mean of runs); greater than 100 µM under setting [1]; > 95 µM (inactive) (FP, mean of runs); greater than 95 µM under setting [2]; greater than 95 µM under setting [3].
For the compound `COC(=O)n1c(=O)oc2ccccc21`, the IC50 is, setting by setting: (AlphaScreen, mean of runs) > 100 µM (inactive); under setting [1], greater than 100 µM; (FP, mean of runs) > 95 µM (inactive); under setting [2], greater than 95 µM; under setting [3], greater than 95 µM.
As for `CCOC(=O)C1(Cc2cccc(F)c2)CCN(Cc2ccon2)CC1`, the IC50 is, setting by setting: (AlphaScreen, mean of runs) 9.02 µM; under setting [1], 9.02 µM; (FP, mean of runs) > 95 µM (inactive); under setting [2], greater than 95 µM; under setting [3], greater than 95 µM.
As for `CCN(CCCNC(=O)CNC(=O)c1nn(-c2ccc(OC)cc2OC)c(=O)c2ccccc12)c1cccc(C)c1`, the IC50 reads like this: (AlphaScreen, mean of runs) > 100 µM (inactive); under setting [1], greater than 100 µM; (FP, mean of runs) > 95 µM (inactive); under setting [2], greater than 95 µM; under setting [3], greater than 95 µM.
Consider `C=C1C[C@@]23CCC4[C@@](C)(CCC[C@@]4(C)C(=O)O)C2CC[C@]1(O)C3` (stereo not given in full), for which the IC50 (AlphaScreen, mean of runs) was > 100 µM (inactive); the IC50 under setting [1] is greater than 100 µM; the IC50 (FP, mean of runs) is > 95 µM (inactive); the IC50 under setting [2] was greater than 95 µM; the IC50 under setting [3] is greater than 95 µM.
In the case of `Cc1ccc(Nc2c(-c3ccccc3O)nc3ncccn23)cc1`, the IC50 runs as follows: (AlphaScreen, mean of runs) > 100 µM (inactive); under setting [1], greater than 100 µM; (FP, mean of runs) > 95 µM (inactive); under setting [2], greater than 95 µM; under setting [3], greater than 95 µM.
As to `C[C@@H]1CC=C[C@H]2[C@H]1C(=O)N(Cc1ccccc1)[C@H]2c1ccc(/C=C/c2ccccc2)cc1F`, the IC50 was > 100 µM (inactive) (AlphaScreen, mean of runs); greater than 100 µM under setting [1]; > 95 µM (inactive) (FP, mean of runs); greater than 95 µM under setting [2]; greater than 95 µM under setting [3].
Turning to `CCOc1ccc(/C=C2/Sc3ccc(C(=O)NCC4CCCO4)cc3N(C)C2=O)cc1OC` (stereo not given), the IC50 reads like this: (AlphaScreen, mean of runs) > 100 µM (inactive); under setting [1], greater than 100 µM; (FP, mean of runs) > 95 µM (inactive); under setting [2], greater than 95 µM; under setting [3], greater than 95 µM.
